US10206908B2, “3-(1H-pyrrolo[3,2-C]pyridin-2-YL)-1H-pyrazolo[3,4-C]pyridines and therapeutic uses thereof” (Samumed, LLC, priority 2015, dated 2019)

Legend:
Format in all cases: cell-based
IL-6 (THP-1 cells) = assay: IL-6 inhibition in LPS-stimulated THP-1 monocytes (HTRF); conditions: Homo sapiens; for inhibition at 10 µM: THP-1, read-out: percent inhibition at 10 μM; for EC50: IL-6, THP-1 cells, LPS 500 ng/mL, 22 hours
Experimental: Compound Screening: THP-1 cells were cultured in basal media with 1% FBS for 24 hours before the start of the assay. […] THP-1 cells were plated at 5000 cells/well in the 384-well plates and incubated at 37° C. for 2 h. 500 ng/mL of LPS was added after 2 hours and cells were incubated for another 22 hours at 37° C. Plates were spun in a centrifuge for 1 minute at […] and a mixture of anti-IL6 XL665, and anti-IL6 Cryptate diluted in reconstitution buffer (Cisbio Inc.) was added to each well. Following incubation for 3 hrs at room temperature, Homogeneous Time-Resolved Fluorescence (HTRF) was measured using the Envision (Perkin Elmer) at 665 nm and […]. The ratio of fluorescence at 665 nm to 620 nm was used as a readout for IL6 quantification. All samples were processed in duplicate. Readings were normalized to DMSO treated cells and normalized activities were utilized for EC50 calculations using the dose-response log (inhibitor) vs. response-variable slope (four parameters) nonlinear regression feature available in GraphPad Prism 5.0 (or Dotmatics).

[1] = system: primary human fibroblasts derived from IPF patients (LL29 cells) treated with TGF-β1; assay: Inhibition of the fibrotic process: αSMA staining in TGF-β1 treated LL29 fibroblasts; conditions: Fibroblast; for EC50: 96 h, % αSMA positive LL29 cells, TGF-β1 20 ng/mL, 4 days; for inhibition at 10 µM: read-out: percent inhibition at 10 μM
Experimental: Representative compounds were screened using primary human fibroblasts (derived from IPF patients) treated with TGF-β1 to determine their ability to inhibit the fibrotic process.
LL29 cells are plated at 1,500 cells/well in 80 μL/well F12 medium supplemented with 1% Fetal Bovine Serum. […] Wells treated with TGF-β1 and containing DMSO were used as controls. […] Following incubation for 4 days, SYTOX green nucleic acid stain (Life Technologies [Thermo Fisher Scientific]) was added to the wells at a final concentration of 1 μM and incubated at room temperature for 30 min.

SW480 colon cancer cells = assay: Cell viability assay (CellTiter-Blue) in SW480 colon cancer cells; conditions: Homo sapiens; for EC50: 96 h, SW480 cell viability, four days; for inhibition at 10 µM: SW480, read-out: percent inhibition at 10 μM
Experimental: Representative compounds were screened using the following assay procedure to assess the effect on cell viability as described below.
Approximately 2×10^3 SW480 colon cancer cells were seeded into each well and allowed to incubate in the presence or absence of compound for four days at 37° C./5% CO2. Eight replicates of DMSO-treated cells served as controls and cells treated with compound were performed in duplicate.
After incubation, 20 μL of CellTiter-Blue (Promega) was added to each well allowed to incubate for approximately 3 hours. This reagent was a buffered solution which contains resazurin, metabolically active cells were able to reduce rezarurin (blue) into resorufin (pink) which was highly fluorescent. This measured fluorescence was used as a readout for cell viability.

[2] = system: Wnt activity (Sp5-Luc reporter, SW480 colon carcinoma cells); assay: Screening assay for Wnt activity: Sp5-Luc reporter gene assay in SW480 colon carcinoma cells; conditions: Homo sapiens; for EC50: Sp5-Luc reporter, SW480 cells, overnight incubation; for inhibition at 10 µM: SW480, read-out: percent inhibition at 10 μM
Description: The screening assay for Wnt activity is described as follows. Reporter cell lines can be generated by stably transducing cancer cell lines (e.g., colon cancer) or primary cells (e.g., IEC-6 intestinal cells) with a lentiviral construct that includes a Wnt-responsive promoter driving expression of the firefly luciferase gene.
SW480 colon carcinoma cells were transduced with a lentiviral vector expressing luciferase with a human Sp5 promoter consisting of a sequence of eight TCF/LEF binding sites. SW480 cells stably expressing the Sp5-Luc reporter gene and a hygromycin resistance gene were selected by treatment with 150 μg/mL of hygromycin for 7 days. These stably transduced SW480 cells were expanded in cell culture and used for all further screening activities. […] For Sp5-Luc reporter gene assays, the cells were plated at 4,000 cells/well in 384-well plates with medium containing 1% fetal bovine serum and incubated overnight at 37° C. and 5% CO2. Following incubation, 20 μl of BrightGlo luminescence reagent (Promega) was added to each well of the 384-well assay plates. The plates were placed on an orbital shaker for 2 min and then luminescence was quantified using the Envision (Perkin Elmer) plate reader. Readings were normalized to DMSO only treated cells, and normalized activities were utilized for EC50 calculations using the dose-response log (inhibitor) vs. response-variable slope (four parameters) nonlinear regression feature available in GraphPad Prism 5.0 (or Dotmatics).

SMILES | EC50 (IL-6 (THP-1 cells)) [µM] | EC50 (SW480 colon cancer cells) [µM] | EC50 [2] [µM] | inhibition at 10 µM (IL-6 (THP-1 cells)) [%] | EC50 [1] [µM] | inhibition at 10 µM [1] [%] | inhibition at 10 µM (SW480 colon cancer cells) [%] | inhibition at 10 µM [2] [%]
c1cncc(-c2cc3c(-c4cc5c(N6CCCCC6)nccc5[nH]4)n[nH]c3cn2)c1 [Compound 172, 3-(4-(Piperidin-1-yl)-1H-pyrrolo[3,2-c]pyridin-2-yl)-5-(pyridin-3-yl)-1H-pyrazolo[3,4-c]pyridine] | > 10 | > 10 | 0.632 | 0 | > 10 | 0 | 10.8 | 
O=C(Cc1ccccc1)Nc1cncc(-c2cc3c(-c4cc5c(N6CCCCC6)nccc5[nH]4)n[nH]c3cn2)c1 [Compound 178, 2-Phenyl-N-(5-(3-(4-(piperidin-1-yl)-1H-pyrrolo[3,2-c]pyridin-2-yl)-1H-pyrazolo[3,4-c]pyridin-5-yl)pyridin-3-yl)acetamide] | 9.32 | 6.5 | 4.23 |  | > 10 | 0 |  | 
CC(C)Nc1cncc(-c2cc3c(-c4cc5c(N6CCCCC6)nccc5[nH]4)n[nH]c3cn2)c1 [Compound 180, N-Isopropyl-5-(3-(4-(piperidin-1-yl)-1H-pyrrolo[3,2-c]pyridin-2-yl)-1H-pyrazolo[3,4-c]pyridin-5-yl)pyridin-3-amine] | 3.39 | 4.16 | 2.45 |  | 2.6 |  |  | 
c1cc2[nH]c(-c3n[nH]c4cnc(-c5cncc(CN6CCCC6)c5)cc34)cc2c(N2CCCCC2)n1 [Compound 182, 3-(4-(Piperidin-1-yl)-1H-pyrrolo[3,2-c]pyridin-2-yl)-5-(5-(pyrrolidin-1-ylmethyl)pyridin-3-yl)-1H-pyrazolo[3,4-c]pyridine] | > 10 | > 10 | > 10 | 0 | > 10 | 0 | 13 | 12.7
CN1CCN(c2nccc3[nH]c(-c4n[nH]c5cnc(-c6cncnc6)cc45)cc23)CC1 [Compound 251, 3-(4-(4-Methylpiperazin-1-yl)-1H-pyrrolo[3,2-c]pyridin-2-yl)-5-(pyrimidin-5-yl)-1H-pyrazolo[3,4-c]pyridine] | > 10 | > 10 | > 10 | 12.1 | > 10 | 17.6 | 0 | 41.7
c1cncc(-c2cc3c(-c4cc5c(-c6ccoc6)nccc5[nH]4)n[nH]c3cn2)c1 [Compound 312, 3-(4-(Furan-3-yl)-1H-pyrrolo[3,2-c]pyridin-2-yl)-5-(pyridin-3-yl)-1H-pyrazolo[3,4-c]pyridine] | 1.01 | 0.844 | 1.03 |  | 0.294 |  |  | 
CCCC(=O)Nc1cncc(-c2cc3c(-c4cc5c(-c6ccoc6)nccc5[nH]4)n[nH]c3cn2)c1 [Compound 325, N-(5-(3-(4-(Furan-3-yl)-1H-pyrrolo[3,2-c]pyridin-2-yl)-1H-pyrazolo[3,4-c]pyridin-5-yl)pyridin-3-yl)butyramide] | 2.38 | > 10 | 1.1 |  | 1.74 |  | 31.2 | 
c1ccc(-c2cc3c(-c4cc5c(-c6cccs6)nccc5[nH]4)n[nH]c3cn2)nc1 [Compound 364, 5-(Pyridin-2-yl)-3-(4-(thiophen-2-yl)-1H-pyrrolo[3,2-c]pyridin-2-yl)-1H-pyrazolo[3,4-c]pyridine] | 3.3 | 4.14 | 4.04 |  | 3.12 |  |  | 
CC(C)CC(=O)Nc1cncc(-c2cc3c(-c4cc5c(-c6cc(F)cc(CNS(C)(=O)=O)c6)nccc5[nH]4)n[nH]c3cn2)c1 [Compound 478, N-(5-(3-(4-(3-Fluoro-5-(methylsulfonamidomethyl)phenyl)-1H-pyrrolo[3,2-c]pyridin-2-yl)-1H-pyrazolo[3,4-c]pyridin-5-yl)pyridin-3-yl)-3-methylbutanamide] | > 10 | > 10 | > 10 | 41.3 | > 10 | 29 | 6.3 | 38.7

Continued, in another order:

EC50 (IL-6 (THP-1 cells)) [µM] | EC50 (SW480 colon cancer cells) [µM] | EC50 [2] [µM] | SMILES | inhibition at 10 µM (IL-6 (THP-1 cells)) [%] | EC50 [1] [µM] | inhibition at 10 µM [1] [%] | inhibition at 10 µM (SW480 colon cancer cells) [%] | inhibition at 10 µM [2] [%]
3.86 | > 10 | > 10 | CS(=O)(=O)NCc1cc(F)cc(-c2nccc3[nH]c(-c4n[nH]c5cnc(-c6cncc(CN7CCCC7)c6)cc45)cc23)c1 [Compound 490, N-(3-Fluoro-5-(2-(5-(5-(pyrrolidin-1-ylmethyl)pyridin-3-yl)-1H-pyrazolo[3,4-c]pyridin-3-yl)-1H-pyrrolo[3,2-c]pyridin-4-yl)benzyl)methanesulfonamide] |  | > 10 | 0 | 5.5 | 28.7
> 10 | > 10 | > 10 | CC(C)(C)CC(=O)Nc1cncc(-c2cc3c(-c4cc5c(-c6cc(F)cc(CNS(C)(=O)=O)c6)nccc5[nH]4)n[nH]c3cn2)c1 [Compound 492, N-(5-(3-(4-(3-Fluoro-5-(methylsulfonamidomethyl)phenyl)-1H-pyrrolo[3,2-c]pyridin-2-yl)-1H-pyrazolo[3,4-c]pyridin-5-yl)pyridin-3-yl)-3,3-dimethylbutanamide] | 4.6 | > 10 | 1.8 | 8.6 | 17.3
2.15 | 1.56 | 1.67 | CS(=O)(=O)NCc1cc(F)cc(-c2nccc3[nH]c(-c4n[nH]c5cnc(-c6ccccn6)cc45)cc23)c1 [Compound 504, N-(3-Fluoro-5-(2-(5-(pyridin-2-yl)-1H-pyrazolo[3,4-c]pyridin-3-yl)-1H-pyrrolo[3,2-c]pyridin-4-yl)benzyl)methanesulfonamide] |  | 3.39 |  |  | 
> 10 | > 10 | > 10 | Fc1cccc(-c2nccc3[nH]c(-c4n[nH]c5cnc(C6CCNCC6)cc45)cc23)c1 [Compound 505, 3-(4-(3-Fluorophenyl)-1H-pyrrolo[3,2-c]pyridin-2-yl)-5-(piperidin-4-yl)-1H-pyrazolo[3,4-c]pyridine] | 16.4 | > 10 | 0 | 5.2 | 28.3
0.503 | > 10 | 0.078 | Cn1cc(-c2cc3c(-c4cc5c(-c6cccnc6)nccc5[nH]4)n[nH]c3cn2)cn1 [Compound 556, 5-(1-Methyl-1H-pyrazol-4-yl)-3-(4-(pyridin-3-yl)-1H-pyrrolo[3,2-c]pyridin-2-yl)-1H-pyrazolo[3,4-c]pyridine] |  | 0.069 |  | 0 | 
3.81 | 1.1 | 1.44 | c1cc2[nH]c(-c3n[nH]c4cnc(-c5cncc(OC6CCCCC6)c5)cc34)cc2c(N2CCCCC2)n1 [Compound 607, 5-(5-(Cyclohexyloxy)pyridin-3-yl)-3-(4-(piperidin-1-yl)-1H-pyrrolo[3,2-c]pyridin-2-yl)-1H-pyrazolo[3,4-c]pyridine] |  | 1.14 |  |  | 
